# Assay results published in article PMC9146228, “Bioactivity of Novel Pyrazole-Thiazolines Scaffolds against Trypanosoma cruzi: Computational Approaches and 3D Spheroid Model on Drug Discovery for Chagas Disease” (Pharmaceutics, 2022).
# Like-named read-outs stand apart in the source and are kept apart here.
# Key:
# [1] = system: T. cruzi cysteine proteases (trypomastigote protein extract); assay: Proteinase activity in solution (Z-FR-AMC); type: biochemical, Trypanosoma cruzi; details: for maximum inhibition of cysteine protease activity: up to 100 µM, Z-FR-AMC substrate
# Procedure: Trypomastigote protein extracts (Dm28c-Luc; 10^8 parasites/mL) were obtained as previously described. The cysteine protease activity of the total protein extracts (5 µg) was measured using the reaction buffer (CH3COONa 10 mM, pH 5.0 containing 1 mM DTT), in the presence of the fluorogenic peptide substrate […], CBZ-L-Phenylalanyl-l-Arginine amide (Z -FR-AMC), and serial dilutions of pyrazole-thiazolines derivatives (100–6.25 µM). The samples were incubated for 45 min at room temperature. The variation in arbitrary fluorescence units (AFU), corresponding to the enzymatic cleavage of the fluorogenic substrate, was monitored in a SpectraMax M2e reader (Molecular Devices, Sunnyvale, CA, USA) for 1 h, with excitation values at 370 nm and emission values at 460 nm. Extracts incubated with 0.5% DMSO or with cysteine protease inhibitor E-64 were used as […]. […] The inhibitory activity was expressed as percentage inhibition.
# [2] = system: T. cruzi (Dm28c-Luc) trypomastigotes; assay: microbe, parasite or virus in culture; type: cell-based, Trypanosoma cruzi
# Procedure: The screening assays were performed with T. cruzi clone Dm28c (TcI) genetically modified to express luciferase gene (Dm28c-Luc), kindly provided by Dr. Cristina Henriques. Trypomastigotes were isolated from T. cruzi-infected Vero cell monolayers (10:1 parasites/host cell ratio). On the 4th day post-infection (dpi), free trypomastigotes in the culture supernatant were harvested, and the number of parasites/mL was quantified in a Neubauer chamber.
# The trypanocidal activity of the pyrazole-thiazoline derivatives was evaluated against trypomastigote and intracellular amastigote forms of T. cruzi (Dm28c-Luc). Tissue-derived trypomastigotes (1 × 10^6 parasites/well) were incubated with pyrazole-thiazoline derivatives and Bz in different concentrations (0.41–100 µM) for 24 h at 37 °C in a humidified atmosphere and 5% CO2. The parasite viability was determined by the addition of luciferin (300 µg/mL), followed by luminescence detection on the GloMax microplate reader (Promega Corporation, Madison, WI, USA).
# (§1) After 72 h of treatment, luciferin (300 µg/mL) was added to the culture, and the viability of the parasites was assessed by reading the luminescent signal on the GloMax reader (Promega Corporation, Madison, WI, USA). Controls were also performed in non-toxic concentrations of DMSO (≤ 1%). The concentration that reduces the number of viable parasites by 50% (IC50) or 90% (IC90) was calculated by linear regression. The selectivity index (SI) was calculated as CC50/IC50 for each parasite form.
# [3] = system: T. cruzi Dm28c-Luc in Vero cell cultures; assay: Reversibility (washout) assay; type: cell-based, Trypanosoma cruzi; details: 100 µM, 72 h treatment then 72 h drug-free; for inhibition at 100 µM: Trypanosoma cruzi, Vero, read-out: inhibition of cell monolayer infection (intracellular amastigotes) after washout
# Procedure: Then, the cultures were washed with PBS, and maintained for another 72 h at 37 °C in a drug-free medium. Trypomastigotes released in the culture supernatant were detected by transferring the culture medium to 96-well plates, followed by luciferin (300 µg/mL) addition. Viable intracellular amastigotes were also accessed by adding luciferin solution to the cell monolayers.
# [4] = system: T. cruzi (Dm28c-Luc) intracellular amastigotes; assay: Trypanocidal activity against intracellular amastigotes in infected Vero cell monolayers; type: cell-based, Trypanosoma cruzi; details: for IC90: read-out: Trypanocidal Activity Intracellular Amastigotes IC90; for Intracellular Amastigotes SI (CC50 of Vero cells/IC50): selectivity index vs Vero cells
# Procedure: The susceptibility of intracellular amastigotes to pyrazole-thiazoline derivatives (series 1 and 2) was evaluated using 24 h T. cruzi-infected Vero cell monolayers (10:1 parasite/host cell ratio). Then, the cultures were washed with PBS to remove non-internalized parasites, and 200 μL of fresh medium with a serial dilution of pyrazole-thiazoline derivatives and Bz (0.41–100 µM) was added for 72 h at 37 °C.
# as §1
# [5] = system: T. cruzi (Dm28c-Luc)-infected Vero cell spheroids; assay: 3D culture model: T. cruzi-infected Vero cell spheroids; type: cell-based, Trypanosoma cruzi; details: for DAPI staining fluorescence microscopy of infected microtissue: 100 μM; for parasite load, arbitrary luminescence unit (ALU): 72 h, concentration higher than IC90 (100 μM in Figure 6 legend), untreated ALU = 166,678 ± 22,824
# Procedure: Tridimensional Vero cell cultures were obtained as previously described. Briefly, the isolated cells (2 × 10^4/well) were cultured in 96-well U-bottom plates previously coated with 1% agarose. The spheroids were kept for 5 days at 37 °C in RPMI 1640 medium supplemented with 10% FBS for complete three-dimensional organization. Both 2D and 3D culture models were used for trypanocidal activity assays.
# Vero cell spheroids were infected for 24 h with 2 × 10^5 trypomastigotes (Dm28c-Luc). […] Parasite load was assessed by the luminescence reaction after adding the luciferase substrate (luciferin 300 µg/mL). In addition, fluorescence microscopy images of untreated and treated T. cruzi-infected spheroids were acquired after fixing the cultures with 4% paraformaldehyde in PBS and 4′,6-diamidino-2-phenylindole (DAPI) staining, a DNA dye. The samples were observed under the Zeiss Axio Imager M2 fluorescence microscope (Carl Zeiss, Baden-Württemberg, Germany).
# [6] = system: T. cruzi (strain Silvio X10/7); parameters: method as in PMID 30001347; details: 16 days treatment of infected Vero cell monolayers; cited from earlier work
# [7] = Cytotoxicity in vitro assay (CellTiter-Glo); type: cell-based; details: African green monkey, Vero cells, mean ± SD
# Procedure: Vero cells, obtained from the Rio de Janeiro Cell Bank (BCRJ code 0245), were dissociated with trypsin–EDTA solution (0.025%), and maintained in RPMI 1640 medium supplemented with 10% fetal bovine serum (FBS) at 37 °C in a humidified atmosphere of 5% CO2.
# The compound toxicity was evaluated in Vero cell cultures. Briefly, Vero cells were seeded in 96-well white culture plates at a density of 1.5 × 10^4 cells/well for 24 h at 37 °C and 5% CO2. Thereafter, the cell monolayers were washed with phosphate-buffered saline (PBS) and 200 μL of fresh medium with a serial dilution of the pyrazole-thiazoline derivatives and Bz (1.9–500 µM) added. The cell viability was determined by luminescent assay using the CellTiter-Glo Kit (Promega Corporation, Madison, WI, USA) based on the ATP level. After 72 h of treatment, 20 μL of CellTiter-Glo solution was added per well, and cultures were kept for 2 min under agitation. The luminescent signal was read on the GloMax reader (Promega Corporation, Madison, WI, USA). The concentration of compounds that reduced 50% of cell viability (CC50) was calculated by linear regression. At least three independent assays were performed in duplicate.
# [8] = Dm28c-Luc, 24 h, mean ± SD; read-out: Trypanocidal Activity Trypomastigotes IC50
# [9] = Trypanosoma cruzi, 24 h, Dm28c-Luc, 24 h, mean ± SD; read-out: Trypanocidal Activity Trypomastigotes IC50
# [10] = Trypanosoma cruzi; Dm28c-Luc, 24 h, mean ± SD; read-out: Trypanocidal Activity Trypomastigotes IC90
# [11] = Dm28c-Luc in Vero cells, 72 h, mean ± SD, read-out: Trypanocidal Activity Intracellular Amastigotes IC50
# [12] = Trypanosoma cruzi, Vero, 72 h, Dm28c-Luc in Vero cells, 72 h, mean ± SD, read-out: Trypanocidal Activity Intracellular Amastigotes IC50
# [13] = Trypanosoma cruzi, Vero, pIC50 = −log IC50, Dm28c-Luc clone, read-out: Intracellular Amastigotes pIC50 (converted)
# [14] = Trypanosoma cruzi, Dm28c-Luc in Vero cells, 72 h, mean ± SD
# [15] = selectivity index vs Vero cells
Compound,"IC50 [2, 9]","IC90 [2, 10]","IC50 [4, 11]","IC50 [4, 12]","IC50 [4, 13]","IC90 [4, 14]",DAPI staining fluorescence microscopy of infected microtissue [5],"parasite load, arbitrary luminescence unit (ALU) [5]",CC50 at 72 h [7],"Trypomastigotes SI (CC50 of Vero cells/IC50) [2, 15]",melting point,Intracellular Amastigotes SI (CC50 of Vero cells/IC50) [4],further results
"Clc1ccc(-n2cc(C3=NCCS3)cn2)cc1Cl [Compound 2e, 2-(1-(3,4-dichlorophenyl)-1H-pyrazol-4-yl)-4,5-dihydrothiazole]",≤ 2.1 µM,6.9 ± 2 µM,7.84 ± 1 µM,< 10 µM,< 6.92 µM,30.4 ± 3.7 µM,reduction in parasite load,"15,110 ± 1990 ALU",–,–,–,–,"maximum inhibition of cysteine protease activity [1]: ≤ 10%; IC50 [2, 8]: 1.9 ± 0.4 µM; inhibition at 100 µM [3]: 69%"
"CC(C)C[C@H](NC(=O)[C@H]1O[C@@H]1C(=O)O)C(=O)NCCCCN=C(N)N [Compound E-64, E-64, reference compound]",–,–,–,–,–,–,–,–,–,–,–,–,inhibition of cysteine protease activity ([1]; from the lowest concentration analyzed (6.25 µM)): more than 80%
CC[C@@H]([C@H](C)O)n1ncn(-c2ccc(N3CCN(c4ccc(OC[C@@H]5CO[C@@](Cn6cncn6)(c6ccc(F)cc6F)C5)cc4)CC3)cc2)c1=O [posaconazole],–,–,–,–,–,–,–,–,–,–,–,–,parasite relapse / clearance after prolonged treatment [6]: unable to achieve parasite clearance
"O=C(Cn1ccnc1[N+](=O)[O-])NCc1ccccc1 [Bz, benznidazole, reference compound]",–,95.9 ± 4.7 µM,–,–,–,–,drastic reduction in the infection profile,"20,024 ± 2796 ALU",> 500 µM,>18.9,–,–,"IC50 ([2]; Trypanosoma cruzi; Dm28c-Luc, 24 h, mean ± SD; read-out: Trypanocidal Activity Trypomastigotes IC50): 19.6 ± 2.3 µM; parasite clearance in supernatant and cell monolayers after washout [3]: sustained the parasite clearance; parasite relapse / clearance after prolonged treatment [6]: prevention of spontaneous parasite relapse for up to 60 days; IC50 ([4]; Trypanosoma cruzi, Vero, 72 h, read-out: Trypanocidal Activity Intracellular Amastigotes IC50): 3.3 ± 1.1 µM; IC90 ([4]; Trypanosoma cruzi, Vero, 72 h): 13.7 ± 4.2 µM; IC50 ([4]; Trypanosoma cruzi, Vero, read-out: Intracellular Amastigotes pIC50 (converted)): 3.31 µM"
"Clc1cc(Cl)cc(-n2cc(C3=NCCS3)cn2)c1 [Compound 2d, 2-(1-(3,5-dichlorophenyl)-1H-pyrazol-4-yl)-4,5-dihydrothiazole]",> 100 µM,> 100 µM,–,> 100 µM,> 100 µM,> 100 µM,–,–,> 500 µM,<5,134 to 136 °C,<5,–
"COc1ccc(-n2cc(C3=NCCS3)cn2)cc1 [Compound 2k, 2-(1-(4-methoxyphenyl)-1H-pyrazol-4-yl)-4,5-dihydrothiazole]",3.1 ± 0.3 µM,36.1 ± 2.6 µM,–,22.4 ± 2.8 µM,22.9 µM,53 ± 9.8 µM,–,–,110 ± 9.4 µM,36.1,114 to 116 °C,4.9,–
"Fc1cccc(-n2cc(C3=NCCS3)cn2)c1 [Compound 2h, 2-(1-(3-fluorophenyl)-1H-pyrazol-4-yl)-4,5-dihydrothiazole]",9.8 ± 1.5 µM,36.3 ± 3.2 µM,9.1 ± 1.7 µM,< 10 µM,~10 µM,76.3 ± 6.1 µM,–,–,37.9 ± 4.8 µM,3.8,92 to 94 °C,4.19,–
"Clc1cccc(-n2cc(C3=NCCS3)cn2)c1Cl [Compound 2l, 2-(1-(2,3-dichlorophenyl)-1H-pyrazol-4-yl)-4,5-dihydrothiazole]",25.8 ± 1.9 µM,> 100 µM,–,25.3 ± 2.4 µM,25.7 µM,75.5 ± 8.3 µM,–,–,88.7 ± 9.3 µM,3.44,112 to 114 °C,3.5,–
"Nc1c(C2=NCCS2)cnn1-c1ccc(Cl)cc1 [Compound 1f, 2-(5-amino-1-(4-chlorophenyl)-1H-pyrazol-4-yl)-4,5-dihydrothiazole]",88.3 ± 7.1 µM,> 100 µM,–,> 100 µM,> 100 µM,> 100 µM,–,–,> 500 µM,–,283 to 285 °C,–,–
"Brc1ccc(-n2cc(C3=NCCS3)cn2)cc1 [Compound 2i, 2-(1-(4-bromophenyl)-1H-pyrazol-4-yl)-4,5-dihydrothiazole]",≤ 2.1 µM,13.3 ± 2.8 µM,6.8 ± 1.1 µM,< 10 µM,< 6.92 µM,27.1 ± 3.6 µM,reduction in parasite load,"25,788 ± 2776 ALU",–,–,–,31.8,"maximum inhibition of cysteine protease activity [1]: ≤ 10%; IC50 [2, 8]: 2.1 ± 0.9 µM; inhibition at 100 µM [3]: 89%"
